The nature of the data set: phase I pharmacokinetic study of tenatoprazole, oral single dose and daily dose for 7 days. The data set is classed as in vivo, Caucasian individuals. Here is the method:
The doses tested were 10, 20, 40 and 80 mg of tenatoprazole.

Take `COc1ccc2[nH]c([S+]([O-])Cc3ncc(C)c(OC)c3C)nc2n1` (stereo not drawn) [tenatoprazole, 5-methoxy-2-[[(4-methoxy-3,5-dimethyl-2-pyridyl)methyl]sulfinyl]imidazo[4,5-b]pyridine]: the half-life at 7 days (human, plasma, after administration for seven days, depending on the dose (10-80 mg), read-out: mean elimination half-lives) was 5 to 9.2 h. The T½ elimination half-life (repeated dose (7 days), 40 mg) turned out to be 9 h and the T½ elimination half-life (single dose, 80 mg) is listed as 7 h.

The values above are taken from patent publication US20120122919A1, “PHARMACEUTICAL COMPOSITION COMBINING TENATOPRAZOLE AND A HISTAMINE H2-RECEPTOR ANTAGONIST” (priority 2002, published 2012).
